Reference: US10287267B2, “Isoquinolin-3-yl carboxamides and preparation and use thereof” (Samumed, LLC, priority 2016, dated 2019)

Legend:
[1] = system: Wnt pathway (Sp5-Luc reporter, TCF/LEF binding sites) in SW480 colon carcinoma cells; assay: Screening assay for Wnt activity: Sp5-Luc reporter gene assay; type: cell-based, human; settings: Homo sapiens; for EC50: Sp5-Luc reporter, SW480 cells, 36 to 48 hours;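 for all read-outs here: firefly luciferase luminescence read in stably transduced SW480 cells carrying the Sp5 promoter reporter with eight TCF/LEF sites, compounds given in 0.1% DMSO final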
Procedure: The screening assay for Wnt activity is described as follows.
Following incubation, 15 μl of BriteLite Plus luminescence reagent (Perkin Elmer) was added to each well of the 384-well assay plates. The plates were placed on an orbital shaker for 2 min and then luminescence was quantified using the Envision (Perkin Elmer) plate reader.

[2] = biological target: recombinant DYRK1A kinase (Homo sapiens (Human), UniProt Q13627); assay: DYRK1A kinase assay (Ser/Thr 18 peptide Z-lyte FRET); type: biochemical; settings: 30 μM ATP, 1 h room temperature;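 note: Read-out is the coumarin to fluorescein emission ratio, referenced to unphosphorylated (0%) and phosphorylated (100%) Ser/Thr 18 peptide controls, values from dose-response curves by non-linear regression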
recombinant GSK3β kinase = recombinant GSK3β kinase (Homo sapiens (Human), UniProt P49841); assay: GSK3β kinase assay (Ser/Thr 09 peptide Z-lyte FRET); type: biochemical; settings: 46 μM ATP, 1 h room temperature;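 note: kinase activity read as coumarin to fluorescein emission ratio, 11-point threefold dilutions from 10 µM to 0.0003 µM in duplicate, unphosphorylated and phosphorylated peptide as 0% and 100% controls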
Chain of recombinant GSK3β kinase (P49841 whole entry): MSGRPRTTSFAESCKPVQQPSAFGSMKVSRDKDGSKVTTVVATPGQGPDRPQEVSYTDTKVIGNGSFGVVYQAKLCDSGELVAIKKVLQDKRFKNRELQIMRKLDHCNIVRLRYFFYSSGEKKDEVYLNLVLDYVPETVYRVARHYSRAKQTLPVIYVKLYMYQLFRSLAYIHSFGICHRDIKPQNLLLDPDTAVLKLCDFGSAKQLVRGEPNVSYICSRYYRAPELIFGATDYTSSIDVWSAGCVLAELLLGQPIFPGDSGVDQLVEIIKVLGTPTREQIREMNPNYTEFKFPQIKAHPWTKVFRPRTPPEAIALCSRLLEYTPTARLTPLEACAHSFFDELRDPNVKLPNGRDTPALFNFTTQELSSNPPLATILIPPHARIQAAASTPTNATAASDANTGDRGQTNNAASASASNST

[3] = system: Tau phosphorylation at Ser396 (pSer396); assay: Tau phosphorylation assay (pSer396 ELISA / western blot) in SH-SY5Y cells; type: cell-based, human; settings: Homo sapiens; SH-SY5Y cells, overnight (16-18 h) exposure; read-out: pSer396 Tau EC50;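 note: EC50 for reduction of Tau pSer396 in lysed cells, measured by colorimetric ELISA or chemiluminescent western blot, both using the same pSer396 antibody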
[4] = system: SW480 colon carcinoma cells; assay: Cell viability assay (CellTiter-Glo); type: cell-based, human; settings: Homo sapiens; for EC50: 96 h, SW480 cells, CellTiter-Glo, four days incubation
[5] = system: α-smooth muscle actin (αSMA) positive LL29 cells; assay: Inhibition of fibrotic process: αSMA in TGF-β1 treated primary human fibroblasts from IPF patients; type: cell-based; settings: Homo sapiens, Fibroblast; for EC50: 96 h, Table 8, LL29 fibroblasts from IPF patients, TGF-β1 20 ng/mL, 4 days, dose-response 10 μM to 0.94 nM; for inhibition at 10 µM: read-out: percent value in parentheses beside EC50 >10 μM;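 for all read-outs here: controls were TGF-β1 stimulated wells with DMSO vehicle (positive) and cells given DMSO alone (negative), cultured in F12 medium with 1% fetal bovine serum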
IL-6 = IL-6 inhibition in LPS-stimulated human peripheral blood mononuclear cells (HTRF); type: cell-based; settings: Homo sapiens, PBMC; for EC50: Table 9, huPBMCs, LPS 50 ng/mL, 22 hours, dose-response starting from 10 μM;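 for all read-outs here: IL-6 detected by HTRF with an XL665- and Cryptate-labelled anti-IL-6 antibody pair, samples run in duplicate, EC50 obtained from a four-parameter Levenberg-Marquardt curve fit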
Procedure: After 22 hour incubation, a mixture of anti-IL6 XL665 and anti-IL-6 Cryptate diluted in reconstitution buffer (Catalog #62IL6PEC, Cisbio Inc., Bedford, Mass.) was added to each well. […] All samples were processed in duplicate. […] EC50 was determined using software generated by Dotmatics Limited (Windhill Bishops Stortford Herts, UK) using the Levenberg-Marquardt 4 parameter fitting procedure with finite different gradients.

[6] = SW480, read-out: percent inhibition at 10 μM

Row | Structure (SMILES) | EC50 [1] | EC50 [2] | EC50 (recombinant GSK3β kinase) | EC50 [3] | EC50 [4] | EC50 [5] | EC50 (IL-6) | inhibition at 10 µM [1, 6] | inhibition at 10 µM [5] | inhibition at 10 µM [4, 6] | inhibition at 10 µM (IL-6; read-out: percent value in parentheses beside EC50 >10 μM)
1 | Cn1cc(-c2ccc3cnc(NC(=O)C4CCN(CCO)CC4)cc3c2)cn1 [Compound 358, 1-(2-Hydroxyethyl)-N-(6-(1-methyl-1H-pyrazol-4-yl)isoquinolin-3-yl) piperidine-4-carboxamide] | 413 nM | 0.6 nM | 80 nM | 353 nM | 2370 nM | 145 nM | 613 nM |  |  |  | 
2 | Cn1cc(-c2ccc3cnc(NC(=O)CN4CCCC4)cc3c2)cn1 [Compound 284, N-(6-(1-Methyl-1H-pyrazol-4-yl)isoquinolin-3-yl)-2-(pyrrolidin-1-yl) acetamide] | 1870 nM | 7.1 nM | 37 nM | 359 nM | 2670 nM | 2340 nM | 1180 nM |  |  |  | 
3 | Cn1ncc(-c2ccc3cnc(NC(=O)C4CCN(C5COC5)CC4)cc3c2)c1CN1CCCCC1 [Compound 826, N-(6-(1-Methyl-5-(piperidin-1-ylmethyl)-1H-pyrazol-4-yl)isoquinolin-3-yl)-1-(oxetan-3-yl)piperidine-4-carboxamide] | 603 nM | 3.9 nM | 7 nM | 568 nM | 897 nM | 149 nM | 3290 nM |  |  |  | 
4 | CN(CC(=O)Nc1cc2cc(-c3cnco3)ccc2cn1)C1CCC1 [Compound 980, 2-(Cyclobutyl(methyl)amino)-N-(6-(oxazol-5-yl)isoquinolin-3-yl)acetamide] | > 10000 nM | 19.1 nM | 389 nM | 2100 nM | 5740 nM | > 10000 nM | 3680 nM | 40.5% | 40.3% |  | 
5 | CC(C)CN1CCC(C(=O)Nc2cc3cc(-c4cncn4C)ccc3cn2)CC1 [Compound 554, 1-Isobutyl-N-(6-(1-methyl-1H-imidazol-5-yl)isoquinolin-3-yl)piperidine-4-carboxamide] | 272 nM | 1.4 nM | 38 nM | 95 nM | 366 nM | 190 nM | 439 nM |  |  |  | 
6 | Cc1ncc(-c2ccc3cnc(NC(=O)CN4C[C@H]5C[C@@H]4CO5)cc3c2)s1 [Compound 996, 2-((1R,4R)-2-Oxa-5-azabicyclo[2.2.1]heptan-5-yl)-N-(6-(2-methylthiazol-5-yl)isoquinolin-3-yl)acetamide] | 4390 nM | 13.4 nM | 141 nM | 3100 nM | > 10000 nM | 1200 nM | > 10000 nM |  |  | 32.2% | 10.6%
7 | Cn1cc(-c2ccc3cnc(NC(=O)C4CCN(C(=O)c5ccccc5)CC4)cc3c2)cn1 [Compound 328, 1-Benzoyl-N-(6-(1-methyl-1H-pyrazol-4-yl)isoquinolin-3-yl)piperidine-4-carboxamide] | 804 nM | 1.9 nM | 16 nM | 231 nM | 929 nM | > 10000 nM | 398 nM |  | 34.5% |  | 
8 | O=C(Nc1cc2cc(-c3cnco3)ccc2cn1)[C@H]1CC[C@@H](N2CCOCC2)CC1 [Compound 979, cis-4-Morpholino-N-(6-(oxazol-5-yl)isoquinolin-3-yl)cyclohexane-1-carboxamide] | 4090 nM | 10 nM | 791 nM | 569 nM | 2220 nM | 1030 nM | 4300 nM |  |  |  | 
9 | Cn1cc(-c2ccc3cnc(NC(=O)C4CCN(Cc5ncco5)CC4)cc3c2)cn1 [Compound 360, N-(6-(1-Methyl-1H-pyrazol-4-yl)isoquinolin-3-yl)-1-(oxazol-2-ylmethyl) piperidine-4-carboxamide] | 690 nM | 1.9 nM | 47 nM | 659 nM | 570 nM | 94 nM | 1170 nM |  |  |  | 
